Laboratory results as given in US6538000B1, “Tricyclic dihydropyrimidine potassium channel openers” (Abbott Laboratories, priority 1999, dated 2003).
Values belong to the compound of their own block, whether it stands above or below them.

Columns and labels:
[1] = target: potassium channels (Sus scrofa, UniProt F1SR11); assay: Functional potassium channel opening activity in isolated bladder strips (field-stimulated twitch); set-up: species or system Landrace pig; settings: for Emax: pig, read-out: Efficacy (% P1075), Landrace pig bladder strips, maximal efficacy relative to P1075
Description: Compounds of the present invention were evaluated for functional potassium channel opening activity using tissue strips obtained from Landrace pig bladders.
Landrace pig bladders were obtained from female Landrace pigs of 9-30 kg. Landrace pigs were euthanized with an intraperitoneal injection of pentobarbital solution, Somlethal®, J. A. Webster Inc., Sterling Mass. The entire bladder was removed and immediately placed into Krebs Ringer bicarbonate solution (composition, mM: NaCl, 120; NaHCO3, 20; dextrose, 11; KCl, 4.7; CaCl2, 2.5; MgSO4, 1.5; KH2PO4, 1.2; K2EDTA, 0.01, equilibrated with 5% CO2/95% O2 pH 7.4 at 37° C.). Propranolol (0.004 mM) was included in all of the assays to block β-adrenoceptors. The trigonal and dome portions were discarded. Strips 3-5 mm wide and 20 mm long were prepared from the remaining tissue cut in a circular fashion. The mucosal layer was removed. One end was fixed to a stationary glass rod and the other to a Grass FT03 transducer at a basal preload of 1.0 gram. Two parallel platinum electrodes were included in the stationary glass rod to provide field stimulation of 0.05 Hz, 0.5 milli-seconds at 20 volts. This low frequency stimulation produced a stable twitch response of 100-500 centigrams. Tissues were allowed to equilibrate for at least 60 minutes and primed with 80 mM KCl. A control concentration response curve (cumulative) was generated for each tissue using the potassium channel opener P1075 as the control agonist. […] After a 60 minute rinsing period, a concentration response curve (cumulative) was generated for the test agonist in the same fashion as that used for the control agonist P1075. The maximal efficacy of each compounds (expressed as % relative to P1075) is reported. […] Agonist potencies were also expressed as an index relative to P1075. The index was calculated by dividing the ED50 for P1075 by the ED50 for the test agonist in a given tissue. […]

[2] = target: potassium channels (Cavia porcellus, UniProt A0A286XYR9); assay: Membrane hyperpolarization (MHP) assay, DiBAC(4)3 FLIPR, primary cultured guinea-pig urinary bladder (GPB) cells; assay type: cell-based
Sequence of potassium channels (Cavia porcellus, UniProt A0A286XYR9) (A0A286XYR9 1-1546): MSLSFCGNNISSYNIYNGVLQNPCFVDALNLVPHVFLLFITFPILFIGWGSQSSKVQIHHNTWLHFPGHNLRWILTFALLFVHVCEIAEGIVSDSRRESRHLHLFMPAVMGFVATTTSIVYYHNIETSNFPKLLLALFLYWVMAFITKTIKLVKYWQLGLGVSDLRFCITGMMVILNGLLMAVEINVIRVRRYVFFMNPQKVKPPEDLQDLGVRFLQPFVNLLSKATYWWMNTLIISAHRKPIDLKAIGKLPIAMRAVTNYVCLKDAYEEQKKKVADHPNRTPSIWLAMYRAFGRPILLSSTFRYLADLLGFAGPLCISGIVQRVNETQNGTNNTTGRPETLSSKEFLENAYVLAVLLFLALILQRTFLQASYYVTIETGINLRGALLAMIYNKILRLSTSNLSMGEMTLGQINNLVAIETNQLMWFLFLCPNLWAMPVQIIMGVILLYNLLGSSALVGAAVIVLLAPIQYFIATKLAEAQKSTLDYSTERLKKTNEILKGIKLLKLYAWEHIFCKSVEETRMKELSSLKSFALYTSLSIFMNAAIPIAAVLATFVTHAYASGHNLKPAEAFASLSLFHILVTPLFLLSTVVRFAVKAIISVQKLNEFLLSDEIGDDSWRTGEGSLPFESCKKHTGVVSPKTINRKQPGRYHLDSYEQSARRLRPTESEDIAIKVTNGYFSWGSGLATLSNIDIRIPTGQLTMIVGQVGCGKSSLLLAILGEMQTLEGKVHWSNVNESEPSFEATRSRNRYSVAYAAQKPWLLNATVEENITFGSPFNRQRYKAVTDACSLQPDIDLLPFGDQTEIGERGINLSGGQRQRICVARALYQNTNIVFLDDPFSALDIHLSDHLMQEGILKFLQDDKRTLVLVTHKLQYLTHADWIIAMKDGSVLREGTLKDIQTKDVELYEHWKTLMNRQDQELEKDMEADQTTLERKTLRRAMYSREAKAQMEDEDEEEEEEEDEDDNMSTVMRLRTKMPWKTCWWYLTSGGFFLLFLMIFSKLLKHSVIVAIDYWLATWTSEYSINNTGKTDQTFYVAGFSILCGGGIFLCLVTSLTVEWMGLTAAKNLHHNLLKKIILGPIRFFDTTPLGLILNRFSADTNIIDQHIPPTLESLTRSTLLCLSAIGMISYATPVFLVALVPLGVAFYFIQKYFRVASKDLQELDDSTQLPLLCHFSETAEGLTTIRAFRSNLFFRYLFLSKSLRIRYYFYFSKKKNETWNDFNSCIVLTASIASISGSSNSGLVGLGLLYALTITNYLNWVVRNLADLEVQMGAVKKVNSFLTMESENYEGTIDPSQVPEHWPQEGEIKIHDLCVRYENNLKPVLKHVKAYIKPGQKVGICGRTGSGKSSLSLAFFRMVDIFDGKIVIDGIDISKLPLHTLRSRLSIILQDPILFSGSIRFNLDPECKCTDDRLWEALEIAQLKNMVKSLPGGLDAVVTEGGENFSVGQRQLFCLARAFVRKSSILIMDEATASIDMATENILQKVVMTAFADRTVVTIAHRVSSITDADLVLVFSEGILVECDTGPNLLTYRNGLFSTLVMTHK
Sequence of potassium channels (Cavia porcellus, UniProt A0A286XYR9) (Q9JHJ9 whole entry partner): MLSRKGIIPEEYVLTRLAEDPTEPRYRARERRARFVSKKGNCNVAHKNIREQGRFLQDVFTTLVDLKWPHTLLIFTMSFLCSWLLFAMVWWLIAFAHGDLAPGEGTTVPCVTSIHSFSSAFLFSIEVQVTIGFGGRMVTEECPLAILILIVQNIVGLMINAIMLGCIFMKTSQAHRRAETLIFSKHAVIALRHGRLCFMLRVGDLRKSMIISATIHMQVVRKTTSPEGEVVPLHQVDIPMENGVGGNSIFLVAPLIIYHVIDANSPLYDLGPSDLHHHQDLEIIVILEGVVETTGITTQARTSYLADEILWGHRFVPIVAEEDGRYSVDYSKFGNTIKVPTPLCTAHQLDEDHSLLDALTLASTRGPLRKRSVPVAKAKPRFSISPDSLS
Description: Compounds were evaluated for potassium channel opening activity using primary cultured guinea-pig urinary bladder (GPB) cells.
For the preparation of urinary bladder smooth muscle cells, urinary bladders were removed from male guinea-pigs (Hartley, Charles River, Wilmington, Mass.) weighing 300-400 g and placed in ice-cold Ca^2+-free Krebs solution (Composition, mM: KCl, 2.7; KH2PO4, 1.5; NaCl, 75; Na2HPO4, 9.6; Na2HPO4.7H2O, 8; MgSO4, 2; glucose, 5; HEPES, 10; pH 7.4). Cells were isolated by enzymatic dissociation as previously described with minor modifications in (Klockner, U. and Isenberg, G., Pflugers Arch. 1985, 405, 329-339), hereby incorporated by reference. […]
Functional activity at potassium channels was measured by evaluating changes in membrane potential using the bis-oxonol dye DiBAC(4)3 (Molecular Probes) in a 96-well cell-based kinetic assay system, Fluorescent Imaging Plate Reader (FLIPR) (K. S. Schroeder et al., J. Biomed. Screen., v. 1 pp. 75-81 (1996)), hereby incorporated by reference. […] With increasing membrane potential (for example, K^+ depolarization), the probe further partitions into the cell; this is measured as an increase in fluorescence due to dye interaction with intracellular lipids and proteins. Conversely, decreasing membrane potential (hyperpolarization by potassium channel openers) evokes a decrease in fluorescence. […]

Compound: O=C1CCCC2=C1C(c1ccc(Br)c(F)c1)n1nccc1N2 (stereo not drawn) [Example 1, 9-(4-Bromo-3-fluorophenyl)-5,6,7,9-tetrahydropyrazolo[5,1-b]quinazolin-8(4H)-one]
- Emax [1]: 96%

Compound: CCC(C)(C)NC(=NC#N)Nc1cccnc1 [Example P1075, N″-cyano-N-(tert-pentyl)-N′-(3-pyridinyl)guanidine, reference compound]
- effect on stimulated twitch / stimulated contractions of the bladder ([1]; field stimulation 0.05 Hz, 0.5 ms, 20 volts, P1075 10^−9 to 10^−5 M): completely eliminated the stimulated twitch

Compound: O=C1CCCC2=C1C(c1ccc(F)c(Br)c1)n1nccc1N2 (single isomer, unassigned; (-)) [Example 15, (−) 9-(3-Bromo-4-fluorophenyl)-5,6,7,9-tetrahydropyrazolo[5,1-b]quinazolin-8(4H)-one]
- Emax [1]: 100%

- melting point: 160 to 163 °C
Compound: O=C1CSCC2=C1C(c1ccc(F)c(Br)c1)n1nccc1N2 (stereo not drawn) [Example 2, 9-(3-Bromo-4-fluorophenyl)-5,9-dihydro-4H-pyrazolo[1,5-a]thiopyrano[3,4-d]pyrimidin-8(7H)-one]

- Maximal Response (% P1075) ([2]; maximal steady-state hyperpolarization in GPB cells, normalized to 10 μM P1075 = 100%): 113 % P1075
- EC50 ([2]; membrane hyperpolarization in GPB cells, concentration that elicits 50% of the maximal response for the test sample): 33 nM
Compound: O=C1CCCC2=C1C(c1ccc(Cl)c(Cl)c1)n1ncc(Br)c1N2 (stereo not drawn) [Example 48, 3-Bromo-9-(3,4-dichlorophenyl)-5,6,7,9-tetrahydropyrazolo[5.1-b]quinazolin-8(4H)-one]
